The values below come from PMC7287953, “Potential Therapeutic Targeting of Coronavirus Spike Glycoprotein Priming” (Molecules, 2020).

Values joined by “and” are separate entries in the source; they are usually repeats but may differ in a detail not shown here. Equal entries are not always repeated. Where two headings read alike, the source gives them in different places. Where only a bound is given, the exact number is not on record here.

Data set [1] can be described thus: Toxicity study, I.P. dosing and blood chemistry.
The next data set in a line: in vivo. The settings on record: mouse.
The test system of data set [2] is RAW 264.7 murine monocyte macrophages. Type of data set: cell-based.
Another data set concerns the target T1, hPC1/3 (Homo sapiens, UniProt P29120).
T1 sequence (P29120 111-753): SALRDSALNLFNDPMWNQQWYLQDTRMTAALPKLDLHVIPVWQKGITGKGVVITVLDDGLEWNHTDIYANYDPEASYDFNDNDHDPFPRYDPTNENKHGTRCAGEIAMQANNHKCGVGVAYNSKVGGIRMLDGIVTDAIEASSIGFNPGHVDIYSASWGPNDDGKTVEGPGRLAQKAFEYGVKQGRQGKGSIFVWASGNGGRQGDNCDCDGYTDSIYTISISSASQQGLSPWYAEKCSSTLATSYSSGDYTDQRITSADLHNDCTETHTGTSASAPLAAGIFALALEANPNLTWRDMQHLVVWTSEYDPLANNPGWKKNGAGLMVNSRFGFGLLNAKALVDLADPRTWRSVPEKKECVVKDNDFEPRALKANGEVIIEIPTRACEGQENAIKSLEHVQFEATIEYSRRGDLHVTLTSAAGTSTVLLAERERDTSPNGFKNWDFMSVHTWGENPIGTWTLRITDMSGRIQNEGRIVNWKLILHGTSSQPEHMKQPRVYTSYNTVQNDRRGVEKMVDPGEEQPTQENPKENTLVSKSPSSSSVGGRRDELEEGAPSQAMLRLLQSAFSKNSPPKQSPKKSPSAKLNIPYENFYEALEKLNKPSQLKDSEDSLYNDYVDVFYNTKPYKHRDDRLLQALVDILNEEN
The experiment in a line: Inhibition of hPC1/3 activity, fluorescent substrate Pyr-RTKR-AMC. The class given is biochemical.

Another data set deals with T2, hPC7 (Homo sapiens, UniProt Q16549).
T2 sequence (Q16549 142-785): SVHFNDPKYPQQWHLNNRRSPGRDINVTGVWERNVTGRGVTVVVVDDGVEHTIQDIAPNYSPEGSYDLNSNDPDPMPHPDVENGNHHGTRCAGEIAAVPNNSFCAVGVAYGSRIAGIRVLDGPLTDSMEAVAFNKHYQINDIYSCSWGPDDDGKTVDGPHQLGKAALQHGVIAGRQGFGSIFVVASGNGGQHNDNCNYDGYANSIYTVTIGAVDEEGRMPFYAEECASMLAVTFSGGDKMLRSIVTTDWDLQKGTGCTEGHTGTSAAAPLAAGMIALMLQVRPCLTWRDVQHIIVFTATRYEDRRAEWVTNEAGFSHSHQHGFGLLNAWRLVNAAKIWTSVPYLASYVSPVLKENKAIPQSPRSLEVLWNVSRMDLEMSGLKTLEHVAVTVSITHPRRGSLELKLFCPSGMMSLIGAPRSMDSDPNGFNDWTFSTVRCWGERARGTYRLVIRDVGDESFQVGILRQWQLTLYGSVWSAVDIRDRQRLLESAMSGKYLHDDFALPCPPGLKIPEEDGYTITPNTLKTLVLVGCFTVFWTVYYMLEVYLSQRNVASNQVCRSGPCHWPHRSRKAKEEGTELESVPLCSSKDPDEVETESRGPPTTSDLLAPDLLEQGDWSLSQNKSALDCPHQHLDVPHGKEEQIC
The data set can be described thus: Specificity for furin-like PCs: hPC7 inhibition. Type of data set: biochemical. As to conditions: Table S2.

A further data set deals with T3, furin (Homo sapiens, UniProt P09958).
T3 construct: made in house
The experiment in a line: Inhibition of furin activity, fluorescent substrate Pyr-RTKR-AMC. Type of data set: biochemical.

The target in data set [3] is T4, trypsin from bovine pancreas (Bos taurus, UniProt P00760).
T4 construct: from tissue; host or cells: bovine pancreas
T4 sequence (P00760 24-246): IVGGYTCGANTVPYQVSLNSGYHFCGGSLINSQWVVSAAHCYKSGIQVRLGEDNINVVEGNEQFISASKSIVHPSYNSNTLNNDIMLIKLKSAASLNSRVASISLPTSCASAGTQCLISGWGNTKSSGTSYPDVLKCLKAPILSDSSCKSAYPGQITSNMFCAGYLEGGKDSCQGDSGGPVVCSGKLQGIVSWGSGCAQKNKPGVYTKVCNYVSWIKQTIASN
The data set can be described thus: Inhibition of trypsin from bovine pancreas. Type of data set: biochemical. The settings on record: at 10 µM; trypsin as model enzyme for TMPRSS2.

Another data set can be described thus: Plasma stability by LCMS. As to conditions: rat plasma, after 60 min incubation.
The conditions of data set [4]: mouse, in vivo, 30 mg/kg.
The nature of another data set: physchem. The settings on record: 25 °C, pH 7.2, aqueous buffer.
Another data set addresses T5, hPC2 (Homo sapiens, UniProt P16519).
T5 sequence (P16519 110-638): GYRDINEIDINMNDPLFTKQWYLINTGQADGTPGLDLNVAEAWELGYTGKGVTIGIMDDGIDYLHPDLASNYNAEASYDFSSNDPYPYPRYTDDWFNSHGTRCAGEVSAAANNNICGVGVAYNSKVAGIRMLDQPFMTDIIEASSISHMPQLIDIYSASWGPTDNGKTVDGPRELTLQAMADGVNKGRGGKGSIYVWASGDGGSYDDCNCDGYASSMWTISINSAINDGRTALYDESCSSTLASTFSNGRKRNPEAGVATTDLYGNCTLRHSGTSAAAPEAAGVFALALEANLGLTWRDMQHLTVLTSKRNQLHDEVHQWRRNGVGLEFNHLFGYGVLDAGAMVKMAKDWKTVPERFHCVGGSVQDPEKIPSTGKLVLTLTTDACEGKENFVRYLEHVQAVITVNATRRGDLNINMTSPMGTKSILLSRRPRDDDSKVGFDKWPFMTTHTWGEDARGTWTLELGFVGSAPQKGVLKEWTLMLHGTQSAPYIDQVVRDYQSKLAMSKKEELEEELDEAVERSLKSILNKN
The experiment in a line: Specificity for furin-like PCs: hPC2 inhibition. The class given is biochemical. As to conditions: Table S2.

The next data set deals with anthrax toxin LF/PA. Also on record: species or system Balb/c mice. As to conditions: mouse, in vivo.
In data set [5] the test system is SARS-CoV2 surrogate viral particles. As to conditions: human cells; cited from earlier work.

T3 sequence (P09958 108-794): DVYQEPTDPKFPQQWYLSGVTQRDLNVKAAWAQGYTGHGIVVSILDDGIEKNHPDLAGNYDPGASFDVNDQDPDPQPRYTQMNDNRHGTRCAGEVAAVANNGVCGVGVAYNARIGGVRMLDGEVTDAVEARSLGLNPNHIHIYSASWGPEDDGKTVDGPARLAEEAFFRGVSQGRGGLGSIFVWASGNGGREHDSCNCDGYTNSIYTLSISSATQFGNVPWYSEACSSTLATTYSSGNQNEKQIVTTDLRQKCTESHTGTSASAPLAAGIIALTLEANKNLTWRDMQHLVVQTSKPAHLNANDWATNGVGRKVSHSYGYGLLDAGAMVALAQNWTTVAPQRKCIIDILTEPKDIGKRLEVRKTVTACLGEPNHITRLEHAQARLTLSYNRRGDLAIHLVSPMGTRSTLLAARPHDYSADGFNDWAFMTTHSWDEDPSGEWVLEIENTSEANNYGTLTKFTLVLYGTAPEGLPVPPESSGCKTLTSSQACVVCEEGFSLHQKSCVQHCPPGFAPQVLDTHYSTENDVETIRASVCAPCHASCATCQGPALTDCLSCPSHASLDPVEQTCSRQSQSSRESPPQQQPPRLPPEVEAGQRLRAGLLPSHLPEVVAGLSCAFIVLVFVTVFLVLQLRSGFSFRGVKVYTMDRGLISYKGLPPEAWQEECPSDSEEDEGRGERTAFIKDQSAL

In the case of `CC(=O)N[C@@H](CCCNC(=N)N)C(=O)N[C@H](C(=O)N[C@@H](Cc1ccc(N=C(N)N)cc1)C(=O)NCc1ccc(C(=N)N)cc1)C(C)C` [compound 1], the “other blood chemistry values” in data set [1] (5 min after single 20 mg/kg injection) is reported as “normal”. In addition, in [1] (5 min after single 20 mg/kg injection, compared to control group), the “acute toxicity, blood chemistry finding” value is on record as “gross hemolysis”. Also, the MTD in data set [1] (female, Balb/c, mouse, in vivo, ip) is about 10 mg/kg. Further, the mice that died result in [1] (single dose 15 mg/kg I.P., 1 h after compound administration) is “all mice”; in data set [1] (single dose 20 mg/kg I.P., 15 min after compound injection), 2 out of 3. In addition, the bioavailability (usually the share of a dose that reaches the circulation, judged against a reference dose that is usually intravenous) is about 100% in “in vivo” (%F I.P./I.V.) and under 1% in the data set “in vivo” (%F P.O./I.V.). Moreover, the area under the curve (AUC) (commonly concentration integrated over time) worked out at 2600 ng·h/mL in “in vivo” (ip, 3 mg/kg); 870 ng·h/mL in “in vivo” (iv, 1 mg/kg); 26 ng·h/mL in “in vivo” (po, 30 mg/kg). Also, the “EC50 protection of RAW macrophages from LF/PA-induced cell death” value in data set [2] is “low micromolar range”. The IC50 – broadly, the point on the concentration scale where inhibition reaches its midpoint – amounted to 3 nM on hPC1/3, 11.8 µM against hPC7, 9 nM at furin and 1860 nM on hPC2. Also, the inhibition of trypsin result in data set [3] is reported as “can inhibit this enzyme”. The “plasma stability, intact” value in “Plasma stability by LCMS” was over 86%. The “absorption after oral administration (in words)” value in [4] is listed as “insignificant adsorption”. In “physchem”, the solubility (commonly the concentration that dissolves in the medium under given conditions) is over 1000 µM. For the same compound, in the data set with anthrax toxin LF/PA, the “MST (median survival time)” value is 31.5 h and 52.5 h. Also, the “TTD (time to death)” value with anthrax toxin LF/PA is 48 h and 96 h.

Turning to `CN(C)C(=O)COC(=O)Cc1ccc(OC(=O)c2ccc(NC(=N)N)cc2)cc1` [camostat], the “concentrations that attenuated (only partially) entry of SARS-CoV2 surrogate viral particles” value in [5] was 10 to 50 µM. For the same compound, the “inhibition of furin (in words)” value against furin is given as “poor furin inhibitor”; against furin (listed as camostat mesylate) it was “did not appreciably inhibit furin”.
